From publication PMC9655968, “Synthesis of Novel Bromophenol with Diaryl Methanes—Determination of Their Inhibition Effects on Carbonic Anhydrase and Acetylcholinesterase” (Molecules, 2022)

How the values were obtained:
Assay type in all cases: biochemical
hCA I = hCA I (Homo sapiens, UniProt P00915); assay: biochemical; conditions: for IC50: esterase method; for Ki: from Lineweaver-Burk graphs, mean ± SD
Experimental: (§1) […] Both hCA isoforms were purified by using the Sepharose-4B-L-Tyrosine-sulfanilamide affinity technique. Then, the purity of these CA isoenzymes was defined via the SDS-PAGE purity technique.
(§2) In order to investigate the in vitro inhibitory mechanisms of bromophenols (13–21), kinetic studies were performed at different concentrations of bromophenols and various substrates.

hCA II = hCA II (Homo sapiens, UniProt P00918); assay: biochemical; conditions: for IC50: esterase method; for Ki: from Lineweaver-Burk graphs, mean ± SD
Experimental: as §1, §2

AChE = AChE (Electrophorus electricus, UniProt O42275); assay: AChE inhibition, Ellman's method at 412 nm, acetylthiocholine iodide substrate; conditions: for IC50: Ellman's method; for Ki: from Lineweaver-Burk graphs, mean ± SD
Experimental: Acetylthiocholine iodide (AChI) was used as substrate, according to a prior study. […]
as §2

[1] = 19 and 21 compared (hydroxyl instead of methyl)

Chain of hCA I (P00915 whole entry, canonical isoform): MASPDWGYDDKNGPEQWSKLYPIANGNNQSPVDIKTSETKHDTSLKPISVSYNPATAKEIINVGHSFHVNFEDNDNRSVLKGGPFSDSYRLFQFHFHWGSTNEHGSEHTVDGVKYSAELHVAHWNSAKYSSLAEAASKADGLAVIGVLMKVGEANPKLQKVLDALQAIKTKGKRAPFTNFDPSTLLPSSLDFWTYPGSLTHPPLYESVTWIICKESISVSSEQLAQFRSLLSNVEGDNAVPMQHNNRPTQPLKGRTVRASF
Chain of AChE (O42275 24-633): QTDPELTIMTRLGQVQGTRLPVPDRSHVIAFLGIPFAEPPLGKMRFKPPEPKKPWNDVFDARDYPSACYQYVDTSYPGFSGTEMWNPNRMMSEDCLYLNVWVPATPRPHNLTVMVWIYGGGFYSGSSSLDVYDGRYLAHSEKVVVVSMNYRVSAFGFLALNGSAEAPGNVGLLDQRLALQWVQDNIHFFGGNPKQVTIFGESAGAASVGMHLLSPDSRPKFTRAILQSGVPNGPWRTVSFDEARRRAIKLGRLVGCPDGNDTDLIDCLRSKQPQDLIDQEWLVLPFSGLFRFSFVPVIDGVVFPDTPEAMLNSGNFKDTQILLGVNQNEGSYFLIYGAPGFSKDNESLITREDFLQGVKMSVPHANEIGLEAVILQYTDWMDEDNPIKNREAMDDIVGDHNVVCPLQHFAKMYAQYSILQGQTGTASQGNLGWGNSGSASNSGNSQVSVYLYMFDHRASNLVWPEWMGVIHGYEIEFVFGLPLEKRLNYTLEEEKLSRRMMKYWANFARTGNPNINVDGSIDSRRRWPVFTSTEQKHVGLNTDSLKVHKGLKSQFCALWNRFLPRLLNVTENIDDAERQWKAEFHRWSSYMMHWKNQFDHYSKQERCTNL

Compound: 1-Bromo-4,5-dimethoxy-2-(5-methoxy-2-methylbenzyl)benzene [Compound 14]
- fold greater effect on inhibition, hCA I (hCA I; 14 (methyl) compared with 16 (methoxy)): 5.06 fold
- fold difference in the inhibition value, hCA I (hCA I; compounds 14 and 19 compared): 8.04 fold
- IC50 (hCA I): 19.8 nM
- Ki (hCA I): 2.53 ± 0.25 nM
- IC50 (hCA II): 14.7 nM
- Ki (hCA II): 4.28 ± 0.86 nM
- IC50 (AChE): 11.9 nM
- Ki (AChE): 11.6 ± 2.75 nM

Compound: 4-Bromo-5-(2-bromo-4-hydroxybenzyl)benzene-1,2-diol [Compound 19]
- IC50 (AChE): 20.4 nM
- Ki (AChE): 17.4 ± 3.15 nM

Compound: COc1ccc(Cc2cc(OC)c(OC)cc2Br)c(Br)c1 [Compound 13, 1-Bromo-2-(2-bromo-4-methoxybenzyl)-4,5-dimethoxybenzene]
- IC50 (hCA I): 38.5 nM
- Ki (hCA I): 25.7 ± 4.58 nM
- IC50 (hCA II): 21 nM
- Ki (hCA II): 1.63 ± 0.11 nM

Compound: COc1cc(Cc2cc(OC)c(OC)cc2Br)c(OC)cc1Br [Compound 15, 1-Bromo-2-(4-bromo-2,5-dimethoxybenzyl)-4,5-dimethoxybenzene]
- fold decrease in the Ki value, hCA I (hCA I; 15 compared with 16 (bromo group at 4th position)): 1.37 fold
- IC50 (hCA I): 20.4 nM
- Ki (hCA I): 9.35 ± 1.88 nM
- IC50 (hCA II): 15.1 nM
- Ki (hCA II): 2.62 ± 0.13 nM

Compound: COc1ccc(OC)c(Cc2cc(OC)c(OC)cc2Br)c1 [Compound 16, 1-Bromo-2-(2,5-dimethoxybenzyl)-4,5-dimethoxybenzene]
- IC50 (hCA I): 21 nM
- Ki (hCA I): 12.8 ± 0.52 nM
- IC50 (hCA II): 15.8 nM
- Ki (hCA II): 7.77 ± 0.57 nM

Compound: COc1cc(Br)c(Cc2ccc(OC)c(OC)c2OC)cc1OC [Compound 17, 1-(2-bromo-4,5dimethoxybenzyl)-2,3,4-trimethoxybenzene]
- IC50 (hCA I): 27.7 nM
- Ki (hCA I): 18.8 ± 4.97 nM
- IC50 (hCA II): 23.1 nM
- Ki (hCA II): 10.3 ± 1.88 nM

Compound: Oc1ccc(Cc2cc(O)c(O)cc2Br)c(Br)c1 [Compound 18, 4-Bromo-5-(2-bromo-4-hydroxybenzyl)benzene-1,2-diol]
- IC50 (hCA I): 15.4 nM
- Ki (hCA I): 12.5 ± 0.66 nM
- IC50 (hCA II): 11.4 nM
- Ki (hCA II): 9.15 ± 1.36 nM

Compound: Oc1cc(Br)c(Cc2cc(O)c(Br)cc2O)cc1O [Compound 20, 4-Bromo-5-(4-bromo-2,5-dihydroxybenzyl)benzene-1,2-diol]
- IC50 (hCA I): 19.3 nM
- Ki (hCA I): 13.4 ± 2.29 nM
- IC50 (hCA II): 14.1 nM
- Ki (hCA II): 6.21 ± 1.01 nM

Compound: Oc1ccc(O)c(Cc2cc(O)c(O)cc2Br)c1 [Compound 21, 4-Bromo-5-(2,5-dihydroxybenzyl)benzene-1,2-diol]
- IC50 (hCA I): 12.4 nM
- Ki (hCA I): 11 ± 3.83 nM
- fold increase in the inhibition value, hCA II (hCA II; [1]): 3.03 fold
- IC50 (hCA II): 7.45 nM
- Ki (hCA II): 4.97 ± 0.59 nM
- fold increase in the inhibition value, AChE (AChE; [1]): 2.67 fold
